Consider five molecules from ChEMBL document CHEMBL5104192, “Late-Stage Functionalization with Cysteine Staples Generates Potent and Selective Melanocortin Receptor-1 Agonists” (J Med Chem, 2022).

*1 amine or outer side, *2 acyl side, *3 side chain or, on linkers, in order; H or OH if unused. Where a SMILES comes first, the peptide text is derived from it. Bridges are numbered along the chain shown (N, C = ends). [ ]: non-standard residue; d: D form. Nle = CCCC[C@H](N)C(=O)O; X7 = C(C[*:1])C[*:2]

For one experiment, the target named is Melanocortin receptor 5 (Homo sapiens, UniProt P33032). The experiment can be described thus: Agonist activity at human MC5R expressed in HEK2936E cells assessed as cAMP production in presence of IBMX by time resolved fluorescence assay. Format: functional, cell-based.
Melanocortin receptor 5, sequence (P33032 whole entry): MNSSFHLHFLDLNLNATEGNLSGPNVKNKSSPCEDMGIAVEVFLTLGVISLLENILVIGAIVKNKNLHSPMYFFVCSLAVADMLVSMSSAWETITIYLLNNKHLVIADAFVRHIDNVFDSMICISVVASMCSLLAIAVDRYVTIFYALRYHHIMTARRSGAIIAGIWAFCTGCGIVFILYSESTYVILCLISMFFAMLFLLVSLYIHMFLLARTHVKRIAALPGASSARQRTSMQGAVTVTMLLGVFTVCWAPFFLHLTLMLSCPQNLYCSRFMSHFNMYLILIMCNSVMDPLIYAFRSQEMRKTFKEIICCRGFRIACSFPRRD
Experiment [1] deals with T1, Melanocyte-stimulating hormone receptor (Homo sapiens, UniProt Q01726). Briefly: Displacement of [125I]-NDP-alpha-MSH from human MC1R expressed in HEK2936E cell membrane measured after 16 to 23 hrs by 1450 microbeta trilux scintillation proximity assay. Format: cell membranes. The note with it: for pKi: hek2936e. On the technique in general: Displacement assays read how much labelled ligand stays bound in the presence of the test substance.
T1 sequence (Q01726 whole entry): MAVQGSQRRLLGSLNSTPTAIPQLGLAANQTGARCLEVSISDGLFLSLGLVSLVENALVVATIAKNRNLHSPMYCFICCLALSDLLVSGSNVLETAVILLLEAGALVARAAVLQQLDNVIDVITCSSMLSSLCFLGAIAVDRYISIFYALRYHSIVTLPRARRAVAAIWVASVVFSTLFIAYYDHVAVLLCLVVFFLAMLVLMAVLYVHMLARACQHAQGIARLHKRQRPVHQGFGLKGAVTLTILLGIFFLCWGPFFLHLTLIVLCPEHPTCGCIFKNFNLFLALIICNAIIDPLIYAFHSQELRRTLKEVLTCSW

In experiment [2] the target is T2, Melanocortin receptor 3 (Homo sapiens, UniProt P41968). Briefly: Displacement of [125I]-NDP-alpha-MSH from human MC3R expressed in HEK2936E cell membrane measured after 16 to 23 hrs by 1450 microbeta trilux scintillation proximity assay. Format: cell membranes. The note with it: for pKi: hek2936e.
T2 sequence (P41968 whole entry): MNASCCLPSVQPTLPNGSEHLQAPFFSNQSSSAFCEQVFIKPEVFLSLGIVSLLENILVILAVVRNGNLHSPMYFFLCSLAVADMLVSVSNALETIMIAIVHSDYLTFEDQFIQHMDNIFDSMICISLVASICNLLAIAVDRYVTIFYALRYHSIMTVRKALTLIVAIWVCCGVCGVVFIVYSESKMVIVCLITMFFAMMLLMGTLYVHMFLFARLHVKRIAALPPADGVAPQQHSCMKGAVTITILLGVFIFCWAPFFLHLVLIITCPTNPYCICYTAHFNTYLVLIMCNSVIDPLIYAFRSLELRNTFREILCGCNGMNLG
Experiment [3] addresses T1, Melanocyte-stimulating hormone receptor. Briefly: Agonist activity at human MC1R expressed in HEK2936E cells assessed as cAMP production in presence of IBMX by time resolved fluorescence assay. The format is functional, cell-based. Particulars: for pEC50: hek2936e.
Experiment [4] has as its target T2, Melanocortin receptor 3. The experiment can be described thus: Agonist activity at human MC3R expressed in HEK2936E cells assessed as cAMP production in presence of IBMX by time resolved fluorescence assay. The format is functional, cell-based. The note with it: for pEC50: hek2936e. In general terms: Changes in cAMP serve as a functional read-out for many G protein-coupled receptors.

Experiment [5] addresses T3, Melanocortin receptor 4 (Homo sapiens, UniProt P32245). Briefly: Agonist activity at human MC4R expressed in HEK2936E cells assessed as cAMP production in presence of IBMX by time resolved fluorescence assay. The format is functional, cell-based. The note with it: for pEC50: hek2936e.
The species entered for experiment [6] is Homo sapiens. Briefly: Selectivity ratio of EC50 for human MC3R to EC50 for human MC1R.
The species entered for experiment [7] is Homo sapiens. Briefly: Selectivity ratio of Ki for human MC3R to Ki for human MC1R.
For experiment [8], the species on record is Homo sapiens. Briefly: Selectivity ratio of EC50 for human MC4R to EC50 for human MC1R.
For experiment [9], the target named is T3, Melanocortin receptor 4. The experiment can be described thus: Displacement of [125I]-NDP-alpha-MSH from human MC4R expressed in HEK2936E cell membrane measured after 16 to 23 hrs by 1450 microbeta trilux scintillation proximity assay. The format is cell membranes. The note with it: for pKi: hek2936e.
The species named for experiment [10] is Homo sapiens. Briefly: Selectivity ratio of Ki for human MC4R to Ki for human MC1R.

T3 sequence (P32245 whole entry): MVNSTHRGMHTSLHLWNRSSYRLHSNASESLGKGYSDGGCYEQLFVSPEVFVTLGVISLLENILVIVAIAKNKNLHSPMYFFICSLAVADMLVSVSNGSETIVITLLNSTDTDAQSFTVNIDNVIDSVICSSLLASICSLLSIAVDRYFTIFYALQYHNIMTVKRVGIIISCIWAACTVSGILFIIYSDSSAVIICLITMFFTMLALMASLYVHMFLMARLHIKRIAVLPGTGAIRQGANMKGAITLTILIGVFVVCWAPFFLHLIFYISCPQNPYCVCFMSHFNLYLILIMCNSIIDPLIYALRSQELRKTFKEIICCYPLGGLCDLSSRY

In general, pEC50 refers to −log10 of the EC50, conventionally taken in molar units. As usually defined, the pKi is −log10 of the Ki, conventionally taken in molar units. A high value points to a small Ki. `CC[C@H](C)[C@@H]1NC(=O)[C@@H]2CCCN2C(=O)[C@H](Cc2c[nH]c3ccccc23)NC(=O)[C@H](CCCNC(=N)N)N(C)C(=O)[C@H](Cc2ccccc2)NC(=O)[C@H](Cc2cnc[nH]2)NC(=O)[C@H]([C@@H](C)O)NC(=O)[C@H](NC(C)=O)CCSCc2ccc(cc2)CSCC[C@H](C(N)=O)NC1=O`: the results for the pEC50 (at Melanocortin receptor 5; in experiment [3]; on Melanocortin receptor 3 [4]) were 4.71, 8.4 and 6.3, respectively. In addition, the negative logarithm of the Ki (pKi) in experiment [1] was determined as 7; at Melanocortin receptor 3 [2], 4.89.

In the case of `CC[C@H](C)[C@@H]1NC(=O)[C@@H]2CCCN2C(=O)[C@H](Cc2c[nH]c3ccccc23)NC(=O)[C@H](CCCNC(=N)N)N(C)C(=O)[C@H](Cc2ccccc2)NC(=O)[C@H](Cc2cnc[nH]2)NC(=O)[C@H]([C@@H](C)O)NC(=O)[C@H](NC(C)=O)CCSSCC[C@H](C(N)=O)NC1=O`, the pEC50 at Melanocortin receptor 4 [5] is given as 7.32; on Melanocortin receptor 5, 5.38; in [3], 8.32; at Melanocortin receptor 3 [4], 6.72. Moreover, the Ratio EC50 in the experiment listed under Homo sapiens [6] worked out at 40; in the experiment listed under Homo sapiens [8], 10. Also, the Ratio Ki in the experiment filed under Homo sapiens [7] was found to be 110; in the experiment filed under Homo sapiens [10], 5. Further, the figures for the negative-log Ki (pKi) (in [1]; at Melanocortin receptor 3 [2]; on Melanocortin receptor 4 [9]) were 7.24, 5.2 and 6.53, respectively.

With `CC[C@H](C)[C@@H]1NC(=O)[C@@H]2CCCN2C(=O)[C@H](Cc2c[nH]c3ccccc23)NC(=O)[C@H](CCCNC(=N)N)N(C)C(=O)[C@H](Cc2ccccc2)NC(=O)[C@H](Cc2cnc[nH]2)NC(=O)[C@H]([C@@H](C)O)NC(=O)[C@H](NC(C)=O)CCSCc2ccccc2CSCC[C@H](C(N)=O)NC1=O`, the pEC50 at Melanocortin receptor 4 [5] came to 6.74; on Melanocortin receptor 5, 4.82; in experiment [3], 8.67; on Melanocortin receptor 3 [4], 6.34. Besides, the Ratio EC50 in the experiment listed under Homo sapiens [6] came out at 214; in the experiment listed under Homo sapiens [8], 85. The Ratio Ki in the experiment filed under Homo sapiens [7] was found to be 191; in the experiment filed under Homo sapiens [10], 17. Moreover, the pKi in [1] is listed as 7.16; on Melanocortin receptor 3 [2], 4.88; on Melanocortin receptor 4 [9], 5.93.

For `CC[C@H](C)[C@@H]1NC(=O)[C@@H]2CCCN2C(=O)[C@H](Cc2c[nH]c3ccccc23)NC(=O)[C@H](CCCNC(=N)N)N(C)C(=O)[C@H](Cc2ccccc2)NC(=O)[C@H](Cc2cnc[nH]2)NC(=O)[C@H]([C@@H](C)O)NC(=O)[C@H](NC(C)=O)CCSCc2cccc(c2)CSCC[C@H](C(N)=O)NC1=O`, the pEC50 at Melanocortin receptor 4 [5] amounted to 6.72; at Melanocortin receptor 5, 4.78; in [3] it was 8.79; on Melanocortin receptor 3 [4], 6.42. Besides, the Ratio EC50 in the experiment filed under Homo sapiens [6] was 219; in the experiment filed under Homo sapiens [8], 110. The Ratio Ki turned out to be 170 in the experiment filed under Homo sapiens [7] and 9 in the experiment listed under Homo sapiens [10]. Besides, the values for the pKi (in experiment [1]; on Melanocortin receptor 3 [2]; at Melanocortin receptor 4 [9]) were 7.31, 5.08 and 6.34, respectively.

A word on the Ki: it is a dissociation constant, usually derived from enzyme kinetics or from competition with a known ligand. Higher therefore signals a looser hold on the target. With `CCCC[C@@H]1NC(=O)[C@@H]2CSCCCSC[C@H](NC(=O)[C@H](CCCNC(=N)N)NC(=O)[C@H](CC(=O)O)NC(=O)[C@H](Cc3c[nH]c4ccccc34)NC(=O)[C@H](CCCNC(=N)N)NC(=O)[C@H](Cc3ccccc3)NC(=O)[C@H](Cc3cnc[nH]3)NC(=O)CNC1=O)C(=O)N[C@@H](Cc1cnc[nH]1)C(=O)N[C@@H](Cc1ccccc1)C(=O)N[C@@H](CCCNC(=N)N)C(=O)N[C@@H](Cc1c[nH]c3ccccc13)C(=O)N[C@@H](CCCNC(=N)N)C(=O)N2` (cyclo(CHFRWRC[Nle]GHFRWDR); linker 1-7 via X7), the EC50 is 2.88 nM on Melanocortin receptor 4 [5], 0.141 nM in [3] (read-out: pEC50 (converted)) and 0.302 nM at Melanocortin receptor 3 [4]. Further, the Ratio EC50 came to 2 in the experiment filed under Homo sapiens [6] and 20 in the experiment filed under Homo sapiens [8]. Moreover, the Ratio Ki in the experiment filed under Homo sapiens [7] is 15; in the experiment listed under Homo sapiens [10], 34. Also, the inhibition constant (Ki) is 1.32 nM in [1], 19.5 nM on Melanocortin receptor 3 [2] and 44.7 nM on Melanocortin receptor 4 [9].
